Laboratory results reported in ChEMBL document CHEMBL2010676, “Metabolites of Microcystis aeruginosa bloom material from Lake Kinneret, Israel” (J Nat Prod, 2012).
Calls of active or inactive are those of the source. No cut-off for these calls is given here.

Columns and labels:
[1] = Inhibition of elastase at 45.5 uM
[2] = target: Prothrombin (Homo sapiens) (UniProt P00734); experiment: Inhibition of thrombin at 45.5 uM
[3] = Inhibition of chymotrypsin at 45.5 uM
[4] = Inhibition of trypsin
[5] = Inhibition of trypsin at 45.5 uM
HCT-116 = experiment: Cytotoxicity against human HCT116 cells at 1.6 uM; assay type: functional, cell-based
[6] = target: T1, Aminopeptidase N (Bos taurus) (UniProt P79098); experiment: Inhibition of bovine amino peptidase N at 45.5 uM
T1 sequence (whole entry): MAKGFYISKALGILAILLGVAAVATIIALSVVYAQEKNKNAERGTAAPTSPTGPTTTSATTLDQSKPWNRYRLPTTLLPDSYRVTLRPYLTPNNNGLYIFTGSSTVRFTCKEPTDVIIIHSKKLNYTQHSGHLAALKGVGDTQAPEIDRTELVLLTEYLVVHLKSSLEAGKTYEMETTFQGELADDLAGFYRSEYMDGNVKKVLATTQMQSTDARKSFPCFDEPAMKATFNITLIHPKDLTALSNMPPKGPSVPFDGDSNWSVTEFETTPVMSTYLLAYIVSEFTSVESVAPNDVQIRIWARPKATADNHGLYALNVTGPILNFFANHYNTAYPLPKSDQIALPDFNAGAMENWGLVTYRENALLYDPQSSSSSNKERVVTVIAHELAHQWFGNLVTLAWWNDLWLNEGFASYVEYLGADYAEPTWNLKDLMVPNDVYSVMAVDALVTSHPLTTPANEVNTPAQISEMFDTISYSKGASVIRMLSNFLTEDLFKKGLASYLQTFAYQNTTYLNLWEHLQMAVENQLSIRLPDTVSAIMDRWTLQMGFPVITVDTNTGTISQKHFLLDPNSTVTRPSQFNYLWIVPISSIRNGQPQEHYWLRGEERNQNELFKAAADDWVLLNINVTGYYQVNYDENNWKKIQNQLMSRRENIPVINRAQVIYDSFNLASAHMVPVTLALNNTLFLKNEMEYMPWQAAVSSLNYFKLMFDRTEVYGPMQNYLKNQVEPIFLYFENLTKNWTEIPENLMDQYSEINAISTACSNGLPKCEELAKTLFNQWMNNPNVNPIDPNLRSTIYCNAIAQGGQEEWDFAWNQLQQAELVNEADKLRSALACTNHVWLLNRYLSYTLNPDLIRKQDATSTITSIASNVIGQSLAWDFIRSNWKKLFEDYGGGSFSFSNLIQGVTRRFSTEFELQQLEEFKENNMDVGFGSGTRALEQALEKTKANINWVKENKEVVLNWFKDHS

[7] = target: Prothrombin (Homo sapiens) (UniProt P00734); experiment: Induction of thrombin activity at 45.5 uM
[8] = Inhibition of chymotrypsin

inhibition [1] | inhibition [2] | inhibition [3] | IC50 [4] [µM] | inhibition [5] | inhibition [6] | Activity [7] [%] | IC50 [8] [µM] | Structure (SMILES) | Activity (HCT-116)
inactive | inactive | inactive | 45.5 |  |  |  |  | CC(=O)O[C@@H]1CC[C@@H]2C[C@H](C(N)=O)N(C(=O)[C@@H](Cc3ccc(O)cc3)NC(=O)[C@@H](O)Cc3ccc(O)cc3)[C@@H]2C1 | 
inactive | < 50% | inactive | 19.9 |  |  |  |  | CC(=O)O[C@H](Cc1ccc(O)cc1)C(=O)N[C@H](Cc1ccccc1)C(=O)N1[C@@H](C(=O)NCCCCNC(=N)N)C[C@H]2CC[C@@H](O)C[C@H]21 | 
 | inactive |  |  | inactive | inactive |  |  | CC(OC(=O)C(CCCNC(=N)N)[N+](C)(C)C)C(OS(=O)(=O)[O-])c1ccc(OS(=O)(=O)O)c(COS(=O)(=O)O)c1 (stereo not drawn) | inactive
inactive | < 50% | inactive | 1.3 |  |  |  |  | N=C(N)NCCCCNC(=O)[C@H]1C[C@H]2CC[C@@H](O)C[C@H]2N1C(=O)[C@@H](Cc1ccccc1)NC(=O)[C@H](O)Cc1ccc(O)cc1 | 
inactive |  | inactive | 1.9 |  |  | 30 |  | N=C(N)NCCCCNC(=O)[C@H]1C[C@H]2CC[C@@H](O)C[C@H]2N1C(=O)[C@@H](Cc1ccccc1)NC(=O)[C@@H](O)Cc1ccc(O)cc1 | 
inactive | inactive |  |  | inactive |  |  | 0.26 | CC[C@@H](C)[C@H]1C(=O)N(C)[C@@H](Cc2ccccc2)C(=O)N[C@@H](C(C)C)C(=O)O[C@H](C)[C@H](NC(=O)[C@H](CCC(N)=O)NC(=O)[C@H](O)Cc2ccc(O)cc2)C(=O)N[C@@H](Cc2ccc(O)cc2)C(=O)N[C@H]2CC[C@@H](O)N1C2=O (relative stereo) | 
inactive | inactive | inactive | 45.5 |  |  |  |  | CC(C)C[C@@H](NC(=O)[C@H](O)Cc1ccc(O)cc1)C(=O)N[C@@H](Cc1ccccc1)C(=O)NCCCCNC(=N)N | 
